Tests used:
[1] = from Comini, L.; Núñez Montoya, S.; Argüello, G.; Cabrera, J. (2006). Partition coefficient (log P) determination of anthraquinone derivatives isolated from Heterophyllaea pustulata Hook, f. (Rubiaceae). …; settings: pH 7.4
[2] = method code SF, from DOI: 10.1016/s0021-9673(03)00534-x, PMID: 12800922; settings: pH 11.0
[3] = method code SF-AS, from DOI: 10.1021/jm00296a014, PMID: 5418493
[4] = method code SF-AS, from DOI: 10.1248/cpb.28.3673
[5] = not given; remark: listed apart in the source
[6] = method code SF-RC, from DOI: 10.1021/jm000079i, PMID: 10956218; settings: pH 7.4
[7] = method code SF-HPLC, from DOI: 10.1006/pest.1998.2384
[8] = method code SF, from DOI: 10.1016/s0223-5234(99)80097-x; settings: pH 7.5
[9] = method code SF-AS, from PMID: 6540096; settings: pH 7.5
[10] = method code SF-HPLC, from DOI: 10.1002/ps.2780280108
[11] = method code SF-HPLC, from DOI: 10.1021/jf0483669, PMID: 15913295; settings: pH 7.4
[12] = method code G, from Wang, L.; Li, H.; Wang, X.; Zhang, Z. (1993). Determination of aqueous solubilities and partition coefficients of substitutive ethylketone congeners by generator column. Huanjing Huaxue, 12(2)151-154.
[13] = not given; remark: listed apart in the source
[14] = method code SF, from DOI: 10.1080/10826070801924857
[15] = not given; remark: listed apart in the source
[16] = not given; remark: listed apart in the source
[17] = method code SF-AS, from DOI: 10.1002/chin.199416148, PMID: 8117185
[18] = not given; remark: listed apart in the source
[19] = from Afshan, A.; Jehangir, M.; Amin, W.; Mujahid, A. (2000). Study of various esters of ethylcysteine acid dimer as brain perfusion imaging agents and formulation into single vial kit for labelling with …; settings: pH 7.5
[20] = method code SF-AS, from DOI: 10.1248/cpb.42.1084, PMID: 8069960
[21] = method code SF, from DOI: 10.1023/a:1012119527214, PMID: 9453056; settings: pH 12.5
[22] = method code SF-HPLC, from DOI: 10.1021/js950346l, PMID: 9109056
[23] = method code SF-HPLC, from PMID: 1854437; settings: pH 7.4
[24] = method code SF-AS, from M. Kuchar, J. Tomkova, V. Rejholec, & O. Roubinek. (1992). Some problems of the chromatographic evaluation of lipophicity. In Kuchar, M. (Ed.) QSAR in Design of Bioactive Compounds (pp. 65-81). Prous …; settings: pH 3.4
[25] = not given; remark: listed apart in the source
[26] = from Nishimura, K.; Okajima, N.; Fujita, T.; Nakajima, M. (1982). Quantitative structure-activity studies of substituted benzylchrysanthemates. IV. Physicochemical properties and rate of progress of the …
[27] = method code SF-AS, from DOI: 10.1128/jb.153.1.232-240.1983, PMID: 6294048
[28] = method code SF-HPLC, from DOI: 10.1021/jm030477w, PMID: 15084119; settings: pH 7.4
[29] = method code SF-HPLC, from DOI: 10.1016/j.apradiso.2007.04.014, PMID: 17574425; settings: pH 7.4
[30] = method code SF-AS, from PMID: 3774812; settings: pH 4.0
[31] = method code SF-HPLC, from DOI: 10.1002/ps.2780440103; settings: pH 2.0
[32] = method code SF-HPLC, from DOI: 10.1016/j.ejpb.2012.12.004, PMID: 23262162

COc1c(C)c(O)cc2c1C(=O)c1ccccc1C2=O
logD [1]: 2.83

CNC12CCCCC1CC(C)c1ccccc12 (stereo not given)
logP: 3.96

CC(C)(C)NCC(O)COc1cccc2c1CCC(=O)N2 (stereo not given)
logD [2]: 1.49

CC(C(=O)O)(c1ccccc1)c1ccccc1
logP [3]: 2.69

Cc1cc(-c2ccc(N)c(C)c2)ccc1N
logD ([4]; pH 5.8): 2.34

CC(C)N(CCC(CCN1CCCCC1)(C(N)=O)c1ccccc1Cl)C(C)C (stereo not given)
logP [5]: 4.78

COc1ccc(Sc2ccccc2N(C)C)c(N)c1
logD [6]: 2.83

O=[N+]([O-])N=C1N(Cc2ccccc2)CCN1Cc1ccc(Cl)nc1
logP [7]: 1.49

Cc1c(O)c(=O)ccn1CCOC(=O)c1ccccc1
logD [8]: 1.04

O=C1CN=C(c2ccccc2Cl)c2cc([N+](=O)[O-])ccc2N1
logD [9]: 2.5

COC(=O)c1c(C)[nH]c(-c2cccc(Cl)n2)c1C(=O)OC
logP [10]: 2.65

NC(=O)C(CCN1CCCCC1)c1ccccc1Cl (stereo not given)
logP [5]: 2.46

O=c1c(-c2ccc(O)cc2)coc2cc(O[C@@H]3O[C@H](CO)[C@@H](O)[C@H](O)[C@H]3O)ccc12
logD [11]: 0.32

Cc1ccc(C(=O)CSc2ccccc2)cc1
logP [12]: 2.7

CCc1c(O)c(=O)ccn1CCOC(=O)c1ccccc1
logD [8]: 1.52

CNC12CC(CN)CCC1CCc1ccccc12 (stereo not given)
logP: 2

O=C(NC1CCCCCC1)NS(=O)(=O)c1cnccc1Nc1cccc(C(F)(F)F)c1
logP [13]: 2.02

CO[C@@]1(NC(=O)C(C(=O)O)c2ccc(O)cc2)C(=O)N2C(C(=O)O)=C(CSc3nnnn3C)CO[C@@H]21 (stereo not given in full)
logD ([4]; pH 2.0): -0.58

CCCCCCOC(=O)OC[C@@H]1O[C@H](n2ccc(N)nc2=O)CS1
logP [14]: 1.57

CC(=O)CC(c1ccccc1)c1c(O)c2ccccc2oc1=O (stereo not given)
logP [15]: 2.4

O=C(O)C1c2ccccc2Cc2ccccc21
logP [3]: 2.78

CN(C)CCN(Cc1ccccc1)c1ccccn1
logP [16]: 2.65

O=C(CCN1CCCC1)CN1C(=O)C2CC=CCC2C1=O (stereo not given)
logP [17]: 1.11

Cc1cc2oc(=O)cc(C)c2cc1OCC(O)CO (stereo not given)
logP [18]: 0.36

CCCOC(=O)[C@H](CS)NCCN[C@@H](CS)C(=O)OCCC
logD [19]: 2.5

COc1ccc2[nH]c3c4ccc(Cl)cc4ncc3c2c1
logP [20]: 4.49

CCCCCCCCOC(=O)OC[C@@H]1O[C@H](n2ccc(N)nc2=O)CS1
logP [14]: 1.72

Oc1ccc([C@H]2COc3cc(O)ccc3C2)cc1
logD [11]: 3.2

CCCN(CC)C(CC)C(=O)Nc1c(C)cccc1C (stereo not given)
logD [21]: 3.22

O=C(O)COC(=O)Cc1ccccc1Nc1c(Cl)cccc1Cl
logP [22]: 2.7

O=C(NCC(F)(F)F)NS(=O)(=O)c1cnccc1NC1CCCCCC1
logP [13]: 0.95

CCCCCCOC(=O)n1cnc(C)c1CSCCNC(=NC#N)NC
logD [23]: 3.1

O=C(O)CCc1ccc(OCc2ccccc2)cc1
logD [24]: 3.31

CCc1cccc(N(C)C(=N)Nc2cc(SC)ccc2Cl)c1
logP [25]: 3

CC1(C)Oc2ccc(C#N)cc2C(N2CCCC2=O)C1O (stereo not given)
logP [15]: 2.1

Cc1c(O)cc2c(c1O)C(=O)c1ccccc1C2=O
logD [1]: 2.36

CC=CCOC(=O)[C@@H]1[C@@H](C=C(C)C)C1(C)C
logP [26]: 5.09

COc1ccc2[nH]c3c(c2c1)CCNc1cc(Cl)ccc1-3
logP [20]: 4.24

CSc1cccc(N(C)C(=N)Nc2cc(SC)ccc2Cl)c1
logP [25]: 2.68

CCCCOC(=O)n1cnc(CSCCNC(=NC#N)NC)c1C
logD [23]: 2.15

CC(=O)OCC1=C(C(=O)O)N2C(=O)C(NC(=O)Cc3cc4ccccc4s3)C2SC1 (stereo not given)
logD ([27]; pH 3.0): 1.68

Cc1nnc(SCC2=C(C(=O)O)N3C(=O)[C@@H](NC(=O)Cn4cnnn4)[C@H]3SC2)s1
logP [27]: -0.24

CC(CC(=O)O)c1ccc(OCc2ccccc2)cc1 (stereo not given)
logD [24]: 3.58

CN1C(C(=O)Nc2ccccn2)=C(O)c2ccccc2S1(=O)=O
logP [22]: 1.86

FCCNc1ccc(-c2cn3cc(I)ccc3n2)cc1
logD [28]: 4.41

CNS(=O)(=O)Cc1ccc2[nH]cc(CCN(C)C)c2c1
logP [16]: 1.1

CCCCOC(=O)[C@H](CS)NCCN[C@@H](CS)C(=O)OCCCC
logD [19]: 2.9

O=C(CCl)Nc1ccc2ncnc(Nc3cc(Cl)c(Cl)cc3F)c2c1
logD [29]: 4.12

CN(C)c1ccccc1Sc1ccc(Cl)cc1N
logD [6]: 3.55

CN(C)C(=O)O[C@H]1N=C(c2ccccc2)c2cc(Cl)ccc2N(C)C1=O
logD [9]: 2.88

FCCCNc1ccc(-c2cn3cc(I)ccc3n2)cc1
logD [28]: 4.6

CCCCCCN1CCN(Cc2ccc(Cl)nc2)C1=N[N+](=O)[O-]
logP [7]: 2.2

O=C(CCN1CCOCC1)CN1C(=O)C2CC=CCC2C1=O (stereo not given)
logP [17]: 0.56

COC(=O)c1c(C)[nH]c(-c2ccc(Cl)cn2)c1C(=O)OC
logP [10]: 2.7

C[C@H](C(=O)O)c1ccc(-c2ccccc2)c(F)c1
logD [30]: 3.87

CC(C)(C)NC[C@H](O)COc1ccccc1C1CCCC1
logD [2]: 3.61

COC(=O)[C@H]1O[C@@H](Oc2ccc3ccc(=O)oc3c2)[C@H](O)[C@@H](O)[C@@H]1O
logD [31]: -1.08

O=C(O)Cc1sc(-c2ccccc2)nc1-c1ccc(Cl)cc1
logD [30]: 2.72

CCN(CC)CC(=O)Nc1c(C)cc(C)cc1C
logD [21]: 2.73

Cc1cc(=O)oc2c(C)c(OCC(O)CCl)ccc12 (stereo not given)
logP [18]: 0.53

Cc1ccc(SCC(=O)c2ccc(Cl)cc2)cc1
logP [12]: 3.43

C=CCC1(C(=O)OC)C(C=C(C)C)C1(C)C (stereo not given)
logP [26]: 4.89

CSC(=NOC(=O)N(C)COC1OC(C(=O)O)C(O)C(O)C1O)C(=O)N(C)C (stereo not given)
logD [31]: -1.98

O=C(CCl)Nc1cc2c(Nc3cc(Cl)c(Cl)cc3F)ncnc2cc1OCCOCCOCCOCCOCCOCCF
logD [29]: 4.75

Cc1c(C)c2c(c(C)c1O)CCC(C)(C(=O)O)O2 (stereo not given)
logP [32]: 2.61

From the SangsterLogP compilation
